In experiment [1] the test system is Escherichia coli. The experiment is described as follows: Antimicrobial activity against Escherichia coli TOP10 harboring pADC-33 plasmid carrying entire blaAmpC gene with alanine residue deletion at 215 position and R210P substitution by Etest method. Type of experiment: functional.
For experiment [2], the system named is Acinetobacter baumannii. The experiment is described as follows: Antimicrobial activity against Acinetobacter baumannii AYE expressing VEB-1 gene by Etest method. In kind it is functional.
Experiment [3] has as its system Acinetobacter baumannii. The experiment can be described thus: Antimicrobial activity against Acinetobacter baumannii KI by Etest method. Type of experiment: functional.
In experiment [4] the test system is Escherichia coli. The experiment is described as follows: Antimicrobial activity against Escherichia coli TOP10 harboring pADC-33 plasmid by Etest method. In kind it is functional.
Experiment [5] has as its system Escherichia coli. The experiment is described as follows: Antimicrobial activity against Escherichia coli TOP10 harboring pADC-33 plasmid with entire blaAmpC gene by Etest method. Type of experiment: functional.
Experiment [6] deals with Escherichia coli. The experiment can be described thus: Antimicrobial activity against Escherichia coli TOP10 harboring pADC-11 plasmid carrying entire blaAmpC gene with alanine residue insertion at 215 position by Etest method. In kind it is functional.
Experiment [7] relates to Acinetobacter baumannii. The experiment can be described thus: Antimicrobial activity against Acinetobacter baumannii expressing ESAC beta-lactamase by Etest method. Type of experiment: functional.
The test system of experiment [8] is Acinetobacter baumannii. The experiment can be described thus: Ratio of Kcat to Km for Acinetobacter baumannii ADC-33 beta-lactamase to Kcat to Km for Acinetobacter baumannii ADC-11 beta-lactamase.
Experiment [9] has as its system Escherichia coli. The experiment is described as follows: Antimicrobial activity against Escherichia coli TOP10 harboring pADC-11 plasmid by Etest method. Type of experiment: functional.
The subject of experiment [10] is Acinetobacter baumannii. The experiment is described as follows: Antimicrobial activity against Acinetobacter baumannii beta-lactamase by Etest method. Type of experiment: functional.
Experiment [11] relates to Acinetobacter baumannii. The experiment is described as follows: Antimicrobial activity against Acinetobacter baumannii CIP70.10 by Etest method. In kind it is functional.
For experiment [12], the system named is Escherichia coli. The experiment is described as follows: Antimicrobial activity against Escherichia coli TOP10 harboring pADC-50 plasmid by Etest method. Type of experiment: functional.
Experiment [13] relates to Escherichia coli. The experiment can be described thus: Antimicrobial activity against Escherichia coli TOP10 harboring pADC-33 plasmid with entire blaAmpC gene with alanine residue deletion at 215 position by Etest method. Type of experiment: functional.
Experiment [14] relates to Escherichia coli. The experiment is described as follows: Antimicrobial activity against Escherichia coli TOP10 harboring pADC-11 plasmid with entire blaAmpC gene by Etest method. Type of experiment: functional.
Experiment [15] relates to Escherichia coli. The experiment can be described thus: Antimicrobial activity against Escherichia coli TOP10 harboring pADC-11 plasmid carrying entire blaAmpC gene with alanine residue insertion at 215 position by Etest method in presence of clavulanic acid. Type of experiment: functional.
The test system of experiment [16] is Escherichia coli. The experiment can be described thus: Antimicrobial activity against Escherichia coli TOP10 harboring pADC-11 plasmid carrying entire blaAmpC gene by Etest method in presence of clavulanic acid. In kind it is functional.
The test system of experiment [17] is Escherichia coli. The experiment can be described thus: Antimicrobial activity against Escherichia coli TOP10 harboring pTOPO plasmid by Etest method in presence of clavulanic acid. In kind it is functional.
Experiment [18] deals with Escherichia coli. The experiment can be described thus: Antimicrobial activity against Escherichia coli TOP10 harboring pTOPO plasmid by Etest method. In kind it is functional.
In experiment [19] the test system is Acinetobacter baumannii. The experiment can be described thus: Antimicrobial activity against Acinetobacter baumannii CIP70.10 by Etest method in presence of clavulanic acid. Type of experiment: functional.
Experiment [20] deals with Acinetobacter baumannii. The experiment is described as follows: Antimicrobial activity against Acinetobacter baumannii KI by Etest method in presence of clavulanic acid. Type of experiment: functional.
Experiment [21] has as its system Escherichia coli. The experiment can be described thus: Antimicrobial activity against Escherichia coli TOP10 harboring pADC-50 plasmid by Etest method in presence of clavulanic acid. Type of experiment: functional.
For experiment [22], the system named is Escherichia coli. The experiment can be described thus: Antimicrobial activity against Escherichia coli TOP10 harboring pADC-11 plasmid by Etest method in presence of clavulanic acid. In kind it is functional.
Experiment [23] has as its system Acinetobacter baumannii. The experiment is described as follows: Antimicrobial activity against Acinetobacter baumannii AYE expressing VEB-1 gene by Etest method in presence of clavulanic acid. In kind it is functional.
Experiment [24] has as its system Escherichia coli. The experiment is described as follows: Antimicrobial activity against Escherichia coli TOP10 harboring pADC-11 plasmid carrying entire blaAmpC gene with alanine residue deletion at 215 position and R210P substitution by Etest method in presence of clavulanic acid. Type of experiment: functional.
Experiment [25] relates to Escherichia coli. The experiment is described as follows: Antimicrobial activity against Escherichia coli TOP10 harboring pADC-11 plasmid carrying entire blaAmpC gene with alanine residue insertion at 215 position and R210P substitution by Etest method. In kind it is functional.
In experiment [26] the test system is Escherichia coli. The experiment is described as follows: Antimicrobial activity against Escherichia coli TOP10 harboring pADC-33 plasmid carrying entire blaAmpC gene by Etest method in presence of clavulanic acid. In kind it is functional.
In experiment [27] the test system is Escherichia coli. The experiment is described as follows: Antimicrobial activity against Escherichia coli TOP10 harboring pADC-33 plasmid carrying entire blaAmpC gene with alanine residue deletion at 215 position by Etest method in presence of clavulanic acid. In kind it is functional.
Experiment [28] has as its system Escherichia coli. The experiment can be described thus: Antimicrobial activity against Escherichia coli TOP10 harboring pADC-33 plasmid carrying entire blaAmpC gene with alanine residue deletion at 215 position and R210P substitution by Etest method in presence of clavulanic acid. In kind it is functional.
Experiment [29] has as its system Escherichia coli. The experiment is described as follows: Antimicrobial activity against Escherichia coli TOP10 harboring pADC-33 plasmid by Etest method in presence of clavulanic acid. Type of experiment: functional.
For experiment [30], the target named is ADC-11 (Acinetobacter baumannii, UniProt D6NSM8). The experiment can be described thus: Activity of Acinetobacter baumannii ADC-11 beta-lactamase.
Experiment [31] deals with Beta-lactamase ADC-33 (Acinetobacter baumannii, UniProt B2ZTR6). The experiment is described as follows: Activity of Acinetobacter baumannii ADC-33 beta-lactamase.

Each structure is given as a SMILES string. pKi: −log10 of the molar value. In brackets after ≈: the same amount, converted by molar mass.

Turning to `CO/N=C(\C(=O)N[C@@H]1C(=O)N2C(C(=O)[O-])=C(C[N+]3(C)CCCC3)CS[C@H]12)c1csc(N)n1`, the MIC is 0.125 µg/mL (≈ 0.26 µM) in experiment [1]; over 256 µg/mL in experiment [2]; 256 µg/mL (≈ 533 µM) in experiment [3]; 0.125 µg/mL (≈ 0.26 µM) in [4]; 1 µg/mL (≈ 2.08 µM) in experiment [5]; 0.5 µg/mL (≈ 1.04 µM) in [6]. In addition, the MIC in experiment [7] worked out at 32 µg/mL (≈ 66.6 µM); in experiment [9], 0.032 µg/mL (≈ 0.0666 µM); in experiment [10] it was 2 µg/mL (≈ 4.16 µM); in experiment [11], 1 µg/mL (≈ 2.08 µM); in [12], 0.032 µg/mL (≈ 0.0666 µM); in [13], 0.25 µg/mL (≈ 0.52 µM). In experiment [14], this compound returned an MIC of 0.125 µg/mL (≈ 0.26 µM). Moreover, the kcat/Km in experiment [8] amounted to 2e+07 M⁻¹ s⁻¹.

Regarding `CC(=O)OCC1=C(C(=O)O)N2C(=O)[C@@H](NC(=O)Cc3cccs3)[C@H]2SC1`, the kcat/Km in experiment [8] came out at 500000 M⁻¹ s⁻¹.

Consider `CC1(C)S[C@@H]2[C@H](NC(=O)Cc3ccccc3)C(=O)N2[C@H]1C(=O)O`, for which the kcat/Km in experiment [8] was 1.3e+06 M⁻¹ s⁻¹.

In the case of `CC1(C)S[C@@H]2[C@H](NC(=O)[C@H](N)c3ccccc3)C(=O)N2[C@H]1C(=O)O`, in experiment [8], the kcat/Km was 500000 M⁻¹ s⁻¹.

As for `O=C(Cc1cccs1)N[C@@H]1C(=O)N2C(C(=O)[O-])=C(C[n+]3ccccc3)CS[C@H]12`, the kcat/Km in experiment [8] came to 800000 M⁻¹ s⁻¹.

Take `CC1(C)S[C@@H]2[C@H](NC(=O)[C@H](N)c3ccc(O)cc3)C(=O)N2[C@H]1C(=O)O` [AMOXICILLIN]: the MIC in [15] is over 256 µg/mL; in experiment [1] it was over 256 µg/mL; in experiment [16], over 256 µg/mL; in [2], over 256 µg/mL; in experiment [17], 2 µg/mL; in experiment [18] it was 2 µg/mL (≈ 5.47 µM). The MIC in experiment [19] is 16 µg/mL; in [3] it was over 256 µg/mL; in experiment [4], over 256 µg/mL; in [20], 64 µg/mL; in experiment [5], over 256 µg/mL; in experiment [21] it was 256 µg/mL. Further, the MIC in [6] is over 256 µg/mL; in experiment [22] it was 256 µg/mL; in experiment [23], 128 µg/mL; in experiment [24], 256 µg/mL; in experiment [25], over 256 µg/mL; in [26] it was over 256 µg/mL. Also, the minimum inhibitory concentration (MIC) in experiment [27] is over 256 µg/mL; in experiment [28] it was 256 µg/mL; in experiment [9] it was over 256 µg/mL; in experiment [29], over 256 µg/mL; in experiment [11], 32 µg/mL (≈ 87.6 µM); in [12], 256 µg/mL (≈ 701 µM). Moreover, the MIC in experiment [13] and in experiment [14] was over 256 µg/mL each time.

Turning to `C[C@H]1[C@H](NC(=O)/C(=N\OC(C)(C)C(=O)O)c2csc(N)n2)C(=O)N1S(=O)(=O)O` [AZTREONAM], the pKi in [30] was 5.52; in experiment [31] it was 8.15. In addition, the minimum inhibitory concentration (MIC) in [1] was 2 µg/mL (≈ 4.59 µM); in [2], over 256 µg/mL; in experiment [3] it was 256 µg/mL (≈ 588 µM); in experiment [4] it was 8 µg/mL (≈ 18.4 µM); in experiment [5], 256 µg/mL (≈ 588 µM); in [6] it was 16 µg/mL (≈ 36.7 µM). Also, the MIC in experiment [7] was over 256 µg/mL; in experiment [25], 256 µg/mL (≈ 588 µM); in [9] it was 0.094 µg/mL (≈ 0.216 µM); in experiment [10], 12 µg/mL (≈ 27.6 µM); in experiment [11], 8 µg/mL (≈ 18.4 µM); in experiment [13], 6 µg/mL (≈ 13.8 µM). Also, the MIC in experiment [14] worked out at 2 µg/mL (≈ 4.59 µM).

Broadly, the MIC is the least concentration at which growth counts as inhibited. The term kcat/Km denotes the second-order rate constant that governs catalysis at low substrate concentration. Usually pKi stands for the Ki on a negative log10 scale, so that one unit is a factor of ten. High values mean a small Ki, low ones a large Ki.

The values above are taken from ChEMBL document CHEMBL1649315, “Extended-spectrum cephalosporinase in Acinetobacter baumannii” (Antimicrob Agents Chemother, 2010).
